Assay [1] relates to Mycobacterium tuberculosis. In words: Antimycobacterial activity against Mycobacterium tuberculosis expressing FadD32 E120G mutant at 125 uM after 7 days. It counts as functional, organism-based.
Assay [2] deals with Mycobacterium tuberculosis. Kind of assay: Antimycobacterial activity against Mycobacterium tuberculosis expressing FadD32 E120G mutant after 7 days. In kind it is functional.

Molecules are shown by their SMILES. Active and inactive are the calls of the source. The calls are words filed in the database; no cut-off is given here.

For 14 molecules, Activity and IC90 results are on record in ChEMBL document CHEMBL2439949, “Synthesis and structure-activity relationships of phenyl-substituted coumarins with anti-tubercular activity that target FadD32” (Bioorg Med Chem Lett, 2013).

The IC90 is the concentration needed for an effect of 90%.

`Cc1cc2oc(=O)cc(-c3ccccc3)c2c(C)c1-c1ccc(C(C)O)cc1` (stereo not given): the outcome in assay [1] was inactive.

As for `Cc1cc2oc(=O)cc(-c3cccc([N+](=O)[O-])c3)c2c(C)c1-c1ccc(CN2CCOCC2)cc1`, in assay [1], the outcome was inactive.

With `CNC(=O)c1ccc(-c2c(C)cc3oc(=O)cc(-c4ccccc4)c3c2C)cc1`, the result in assay [1] was inactive.

For the molecule `Cc1cc2oc(=O)cc(-c3cccnc3)c2c(C)c1-c1ccc(CN2CCOCC2)cc1`, in assay [1], the outcome was inactive.

Regarding `Cc1cc(CO)ccc1-c1c(C)cc2oc(=O)cc(-c3ccccc3)c2c1C`, the result in assay [1] was inactive.

Turning to `Cc1cc2oc(=O)cc(-c3ccccc3)c2c(C)c1-c1ccc(CN2CCCCC2)cc1`, the outcome in assay [1] was inactive.

On to `Cc1cc2oc(=O)cc(-c3ccccc3)c2c(C)c1-c1ccncc1`, for which the outcome in assay [1] was inactive.

As to `Cc1cc2oc(=O)cc(-c3ccccc3)c2c(C)c1-c1ccc(CN2CCOCC2)cc1`, the result in assay [1] was inactive.

In the case of `Cc1cc2oc(=O)cc(-c3ccccc3)c2c(C)c1-c1ccc(CO)cc1`, the result in assay [1] was inactive.

As to `Cc1cc2oc(=O)cc(-c3ccccc3)c2c(C)c1-c1ccccc1Cl`, the outcome in assay [1] was inactive.

In the case of `Cc1cc2oc(=O)cc(-c3ccccc3)c2c(C)c1-c1ccc(CNC2CCCCC2)cc1`, the result in assay [1] was inactive. This molecule also registered an IC90 in assay [2] of 32 µM.

Take `CC(=O)Nc1cccc(-c2cc(=O)oc3cc(C)c(-c4ccc(CN5CCOCC5)cc4)c(C)c23)c1`: in assay [1], the outcome was inactive.

Regarding `Cc1cc2oc(=O)cc(-c3ccc(N)cc3)c2c(C)c1-c1ccc(CN2CCOCC2)cc1`, the outcome in assay [1] was inactive.

For the molecule `Cc1cc2oc(=O)cc(-c3ccccc3)c2c(C)c1-c1ccc(CN2CCN(C)CC2)cc1`, the result in assay [1] was inactive.
